According to US7025958B2, “Use of amidoamines to treat or prevent acanthamoeba and fungal infections” (Alcon, Inc., priority 2000, dated 2006):

Experiments:
Assay type in all cases: cell-based
[1] = test system: Acanthamoeba Strain 1501-3D (NNA cysts); experiment: Minimum cysticidal concentration, strain 1501-3D; conditions: 24 hours exposure at 32° C.
Procedure: (§1) Two different vehicles were utilized to prepare solutions containing Compound No. 4. The first vehicle was the same as the vehicle described in Formulation No. 4 (see Example 2, above), and the second vehicle was a 2 mM TRIS. HCl solution (pH 7.8).
(§2) Minimum cysticidal levels of Compound No. 4 for Acanthamoeba keratitis strains was determined as follows. Briefly, 100 μl serial, two-fold dilutions were prepared across the rows of a microtitre plate. Control wells received only diluent. An equal volume of five strains of Acanthamoba cysts were added to the wells and the plates sealed and incubated at 32° C. for 24 hours. Using a multi-channel pipette, the solutions in the wells were removed and replaced with 200 μl of ¼ strength Lactated Ringer's solution and left at room temperature for 15 minutes. The washing procedure was repeated twice more before finally filling the wells with 100 μl of ¼ strength Lactated Ringer's solution containing live E. coli at an O.D.540 of 0.2. The plates were then sealed and incubated at 32° C. for up to 7 days.
(§3) The MCC values for Compound No. 4 and chlorhexidine against the five Acanthamoeba strains (NNA cysts) tested are set forth in Table 4, below.

F. solani ATCC 36031 = experiment: Dose/response of survivors against fungi, F. solani
Procedure: (§4) A 0.1% stock solution of Compound No. 4 was prepared. The compound was dissolved in TRIS buffer^1 by gently heating and swirling. The final pH was adjusted to 7.8 with 1N HCl. […] To prepare the samples, a 0.1% stock solution of Compound No. 4 was serially diluted in Mueller Hinton Broth (MHB)^2,3 (BBL) to provide solutions containing Compound No. 4 in concentrations of 0.01 w/v %, 0.001 w/v %, 0.0001 w/v %, and 0.00001 w/v %, respectively. Solutions containing 0.02 w/v % PHMB and 0.1 w/v % chlorhexidine, respectively, were utilized as controls.
(§5) The samples were inoculated with low levels (approximately 1.0×10^3 organisms/mL) of the test organism. The test organisms included the fungi C. albicans ATCC 10231 and F. solani ATCC 36031. The samples were checked for survivors at 4, 24, and 48 hours post inoculation. The samples were serially diluted in Dey Engley neutralizing broth (DE) (Difco) and plated in duplicate using trypicase soy agar containing 0.07% asolectin and 0.5% Tween 80. The plates were incubated for 5 days at 20-25° C. and plate counts recorded.

[2] = test system: Acanthamoeba Strain Watson (NNA cysts); experiment: Minimum cysticidal concentration, strain Watson; conditions: 24 hours exposure at 32° C.
Procedure: as §1, §2, §3

[3] = test system: Acanthamoeba Strain 1501-2g (NNA cysts); experiment: Minimum cysticidal concentration, strain 1501-2g; conditions: 24 hours exposure at 32° C.
Procedure: as §1, §2, §3

C. albicans ATCC 10231 = experiment: Dose/response of survivors against fungi, C. albicans
Procedure: as §4, §5

[4] = test system: Acanthamoeba Strain Uni Tap Water 1501-3D (NNA cysts); experiment: Minimum cysticidal concentration, strain Uni Tap Water 1501-3D; conditions: 24 hours exposure at 32° C.
Procedure: as §1, §2, §3

[5] = test system: Acanthamoeba Strain Ros (NNA cysts); experiment: Minimum cysticidal concentration, strain Ros; conditions: 24 hours exposure at 32° C.
Procedure: as §1, §2, §3

[6] = test system: Acanthamoeba polyphaga cysts (ATCC 30871); experiment: Dose/response of survivors, Acanthamoeba polyphaga cysts in Mueller Hinton Broth
Procedure: as §4, with “provide” for “provide solutions containing Compound No. 4 in”, “polyhexamethylene biguanide (PHMP)” for “PHMB”, “were also” for “were”
The samples were inoculated with low levels (approximately 3.0×10^2 organisms/mL) of the test organism. The test organism was Acanthamoeba polyphaga cysts (ATCC 30871) produced 14 days in. PYG and then 14 days in Page's saline, followed by one month of refrigeration. The samples were checked for survivors at 4, 24, and 48 hours post inoculation. The samples were serially diluted in Dey-Engley neutralizing broth (DE) (Difco) and plated in quadruplicate in tissue culture plate wells containing non-nutrient agar overlaid with E. coli. Plates were sealed and incubated for 14 days at 30-35° C. Results were recorded and counts calculated using the Reed and Muench computation.

[7] = 0.00001% Compound No. 4, 0 hours
[8] = 0.00001% Compound No. 4, 4 hours
[9] = 0.00001% Compound No. 4, 24 hours
[10] = 0.00001% Compound No. 4, 48 hours
[11] = 0.0001% Compound No. 4, 0 hours
[12] = 0.0001% Compound No. 4, 4 hours
[13] = 0.0001% Compound No. 4, 24 hours
[14] = 0.0001% Compound No. 4, 48 hours
[15] = 0.001% Compound No. 4, 24 hours
[16] = 0.001% Compound No. 4, 48 hours

[H]/N=C(\N/C(=N/[H])NCCCCCCNC(=N)NC(=N)Nc1ccc(Cl)cc1)Nc1ccc(Cl)cc1 [Chlorhexidine, chlorhexidine, reference compound]
Minimum Cysticidal Concentration [1]: 31.3 micrograms/milliliter | Number of Surviving Organisms (F. solani ATCC 36031; 0.1% Chlorhexidine, 0 hours): 4.9 × 10^3 | Number of Surviving Organisms (F. solani ATCC 36031; 0.1% Chlorhexidine, 4 hours): <1 | Number of Surviving Organisms (F. solani ATCC 36031; 0.1% Chlorhexidine, 24 hours): <1 | Number of Surviving Organisms (F. solani ATCC 36031; 0.1% Chlorhexidine, 48 hours): <1 | Minimum Cysticidal Concentration [2]: 62.5 micrograms/milliliter | Minimum Cysticidal Concentration [3]: 52.1 micrograms/milliliter | Number of Surviving Organisms (C. albicans ATCC 10231; 0.1% Chlorhexidine, 0 hours): 3.3 × 10^3 | Number of Surviving Organisms (C. albicans ATCC 10231; 0.1% Chlorhexidine, 4 hours): <1 | Number of Surviving Organisms (C. albicans ATCC 10231; 0.1% Chlorhexidine, 24 hours): <1 | Number of Surviving Organisms (C. albicans ATCC 10231; 0.1% Chlorhexidine, 48 hours): <1 | Minimum Cysticidal Concentration [4]: 26.0 micrograms/milliliter | Minimum Cysticidal Concentration [5]: 31.25 micrograms/milliliter | Number of Surviving Organisms ([6]; 0.1% Chlorhexidine, 0 hrs): 3.2 × 10^2 | Number of Surviving Organisms ([6]; 0.1% Chlorhexidine, 4 hrs): <10 | Number of Surviving Organisms ([6]; 0.1% Chlorhexidine, 24 hrs): <10 | Number of Surviving Organisms ([6]; 0.1% Chlorhexidine, 48 hrs): <10

CCCCCCCCCCCCCC(=O)NCCCN(C)C [Compound No. 4, N,N-Dimethyl-N′-tetradecanoyl-1,3-propylenediamine]
Number of Surviving Organisms (F. solani ATCC 36031; [7]): 4.9 × 10^3 | Number of Surviving Organisms (F. solani ATCC 36031; [8]): 5.9 × 10^3 | Number of Surviving Organisms (F. solani ATCC 36031; [9]): 1.0 × 10^4 | Number of Surviving Organisms (F. solani ATCC 36031; [10]): 4.8 × 10^3 | Number of Surviving Organisms (F. solani ATCC 36031; [11]): 4.9 × 10^3 | Number of Surviving Organisms (F. solani ATCC 36031; [12]): 6.9 × 10^3 | Number of Surviving Organisms (F. solani ATCC 36031; [13]): 9.5 × 10^3 | Number of Surviving Organisms (F. solani ATCC 36031; [14]): 1.6 × 10^4 | Number of Surviving Organisms (F. solani ATCC 36031; 0.001% Compound No. 4, 0 hours): 4.9 × 10^3 | Number of Surviving Organisms (F. solani ATCC 36031; 0.001% Compound No. 4, 4 hours): 1.0 × 10^1 | Number of Surviving Organisms (F. solani ATCC 36031; [15]): <1 | Number of Surviving Organisms (F. solani ATCC 36031; [16]): <1 | Number of Surviving Organisms (F. solani ATCC 36031; 0.01% Compound No. 4, 0 hours): 4.9 × 10^3 | Number of Surviving Organisms (F. solani ATCC 36031; 0.01% Compound No. 4, 4 hours): <1 | Number of Surviving Organisms (F. solani ATCC 36031; 0.01% Compound No. 4, 24 hours): <1 | Number of Surviving Organisms (F. solani ATCC 36031; 0.01% Compound No. 4, 48 hours): <1 | Number of Surviving Organisms (C. albicans ATCC 10231; [7]): 3.3 × 10^3 | Number of Surviving Organisms (C. albicans ATCC 10231; [8]): 3.2 × 10^3 | Number of Surviving Organisms (C. albicans ATCC 10231; [9]): 2.5 × 10^4 | Number of Surviving Organisms (C. albicans ATCC 10231; [10]): 1.3 × 10^5 | Number of Surviving Organisms (C. albicans ATCC 10231; [11]): 3.3 × 10^3 | Number of Surviving Organisms (C. albicans ATCC 10231; [12]): 3.2 × 10^3 | Number of Surviving Organisms (C. albicans ATCC 10231; [13]): 1.5 × 10^4 | Number of Surviving Organisms (C. albicans ATCC 10231; [14]): 1.3 × 10^5 | Number of Surviving Organisms (C. albicans ATCC 10231; 0.001% Compound No. 4, 0 hours): 3.3 × 10^3 | Number of Surviving Organisms (C. albicans ATCC 10231; 0.001% Compound No. 4, 4 hours): 4.3 × 10^1 | Number of Surviving Organisms (C. albicans ATCC 10231; [15]): 1.0 × 10^1 | Number of Surviving Organisms (C. albicans ATCC 10231; [16]): 3.4 × 10^1 | Number of Surviving Organisms (C. albicans ATCC 10231; 0.01% Compound No. 4, 0 hours): 3.3 × 10^3 | Number of Surviving Organisms (C. albicans ATCC 10231; 0.01% Compound No. 4, 4 hours): <1 | Number of Surviving Organisms (C. albicans ATCC 10231; 0.01% Compound No. 4, 24 hours): <1 | Number of Surviving Organisms (C. albicans ATCC 10231; 0.01% Compound No. 4, 48 hours): <1 | Number of Surviving Organisms ([6]; 0.00001% Compound No. 4, 0 hrs): 3.2 × 10^2 | Number of Surviving Organisms ([6]; 0.00001% Compound No. 4, 4 hrs): 3.2 × 10^3 | Number of Surviving Organisms ([6]; 0.00001% Compound No. 4, 24 hrs): 3.2 × 10^3 | Number of Surviving Organisms ([6]; 0.00001% Compound No. 4, 48 hrs): 3.2 × 10^3 | Number of Surviving Organisms ([6]; 0.0001% Compound No. 4, 0 hrs): 3.2 × 10^2 | Number of Surviving Organisms ([6]; 0.0001% Compound No. 4, 4 hrs): 3.2 × 10^3 | Number of Surviving Organisms ([6]; 0.0001% Compound No. 4, 24 hrs): 2.1 × 10^3 | Number of Surviving Organisms ([6]; 0.0001% Compound No. 4, 48 hrs): 2.1 × 10^3 | Number of Surviving Organisms ([6]; 0.001% Compound No. 4, 0 hrs): 3.2 × 10^2 | Number of Surviving Organisms ([6]; 0.001% Compound No. 4, 4 hrs): 3.2 × 10^2 | Number of Surviving Organisms ([6]; 0.001% Compound No. 4, 24 hrs): 1.7 × 10^1 | Number of Surviving Organisms ([6]; 0.001% Compound No. 4, 48 hrs): <10 | Number of Surviving Organisms ([6]; 0.01% Compound No. 4, 0 hrs): 3.2 × 10^2 | Number of Surviving Organisms ([6]; 0.01% Compound No. 4, 4 hrs): <10 | Number of Surviving Organisms ([6]; 0.01% Compound No. 4, 24 hrs): <10 | Number of Surviving Organisms ([6]; 0.01% Compound No. 4, 48 hrs): <10

polyhexamethylene biguanide [PHMB, reference compound]
Number of Surviving Organisms (F. solani ATCC 36031; 0.02% PHMB, 0 hours): 4.9 × 10^3 | Number of Surviving Organisms (F. solani ATCC 36031; 0.02% PHMB, 4 hours): <1 | Number of Surviving Organisms (F. solani ATCC 36031; 0.02% PHMB, 24 hours): <1 | Number of Surviving Organisms (F. solani ATCC 36031; 0.02% PHMB, 48 hours): <1 | Number of Surviving Organisms (C. albicans ATCC 10231; 0.02% PHMB, 0 hours): 3.3 × 10^3 | Number of Surviving Organisms (C. albicans ATCC 10231; 0.02% PHMB, 4 hours): <1 | Number of Surviving Organisms (C. albicans ATCC 10231; 0.02% PHMB, 24 hours): <1 | Number of Surviving Organisms (C. albicans ATCC 10231; 0.02% PHMB, 48 hours): <1 | Number of Surviving Organisms ([6]; 0.02% PHMB, 0 hrs): 3.2 × 10^2 | Number of Surviving Organisms ([6]; 0.02% PHMB, 4 hrs): <10 | Number of Surviving Organisms ([6]; 0.02% PHMB, 24 hrs): <10 | Number of Surviving Organisms ([6]; 0.02% PHMB, 48 hrs): <10
